Measured values from US10188629B2, “Prodrug of green tea epigallocatechin-3-gallate (pro-EGCG) for use in the treatment of endometriosis” (The Hong Kong Polytechnic University, priority 2012, dated 2019).

How the values were obtained:
Format in all cases: in vivo, mice
[1] = system: vascular endothelial growth factor (VEGF); experiment: VEGF concentrations in plasma and lesions by ELISA
Description: (§1) Pharmacokinetics of EGCG and pro-EGCG in the animals were studied by measuring the corresponding EGCG and pro-EGCG concentrations (EGCG in the EGCG group, pro-EGCG in the pro-EGCG group) in plasma during the intervention and also in lesions at the end of intervention. EGCG and pro-EGCG were quantified by analytical methods as previously described (Lam W H, et al. Bioorg Med Chem. 2004; 510:69-93; Chu K O, et al. J Chromat B 2004; 810:187-95; Chu K O, et al. Anal Chim Acta 2004; 510:69-76). Anti-oxidative and anti-angiogenesis capacities of the samples were also studied by measuring oxygen radical absorbance capacity (ORAC) using a modified phycoerythrin fluorescence decay assay as previously described (Wang C C, et al. Clin Chem 2004; 50:952-4), and vascular endothelial growth factor (VEGF) concentrations were measured using a commercial ELISA kit (Uscn Life Science Inc., TX) according to the manufacturer's manual. Blood samples (n=8 per group) were collected from the tail vein once per week, and plasma was prepared by immediate centrifugation. Implants without subcutaneous and muscle layers (n=4 per group) were removed from the abdominal wall, and the endometriotic lesions were frozen. All of the samples were kept in −80° C. prior to analysis.

[2] = system: apoptotic cells in the endometriotic lesions; experiment: Apoptosis in endometriotic lesions by Cellvizio YO-PRO-1 imaging and TUNEL staining; settings: after 4 weeks
Experimental: (§2) At the end of intervention, functional angiogenesis of the endometriotic lesions (n=8 per group) was monitored by measuring the flow of fluorescence dye in the new microvessels developed in the implants using a Cellvizio® LAB LSU-488 system with a ProFlex Microprobe S1500 (Mauna Kea Technologies, Paris) as previously described (Xu H, et al. Fertil Steril 2011; 96:1021-8.). A total of 10 mg/ml of FITC-Dextran was injected intravenously into each mouse prior to imaging. Total vessel length (μm) and area (μm^2) and functional capillary length (μm^−1) and area density were measured using Cellvizio® LAB Vessel Detection software, and averaged from 4 perpendicular regions of the lesions in replicates. At the same time, apoptotic cells in the lesions were captured by Cellvizio-LAB 488 with a ProFlex MiniO/100 microprobe using Cellvizio® LAB I/C Viewer software (Mauna Kea Technologies). A total of 10 μl of 10 μM YO-PRO®-1 iodide in DSMO was injected into the lesion area.
The total number of apoptotic cells was counted and averaged from the 4 perpendicular regions of the lesions in replicates as described above. Both IVIS and Cellvizio imaging procedures were performed under general anesthesia with isoflurane (Baxter, Ill.), and the mice were observed until fully recovered.
TUNEL labeling for in situ apoptotic cells was performed using an ApopTag Peroxidase In Situ Apoptosis Detection Kit (Temecula, Calif.) according to the manufacturer's instructions. The total numbers of TUNEL-positive stained cells were counted. The mean numbers of apoptotic cells were calculated from 5 separated sections from each animal within the treatment group and are presented as numbers per lesion as above. […] Each section was evaluated by both examiners, who were blinded to the experimental groups and results.

[3] = Oxygen radical absorbance capacity (ORAC) in plasma and lesions
Description: as §1

[4] = system: endometriotic lesions (experimental endometriosis); experiment: Growth of luminescent endometriotic lesions monitored weekly by IVIS bioluminescence imaging
Description: Based on our previous study, an immune-compromised mouse model of experimental endometriosis was created by subcutaneous transplantation of human or mouse tissues to assess the anti-angiogenic effects and mechanisms of green tea catechin (Xu H, et al. Hum Reprod 2009; 24:608-18; Xu H, et al. Fertil Steril 2011; 96:1021-8).
(§3) In this study, endometrial tissues from eight-week-old female CMV-Luc mice (n=15) were acquired for transplantation into nonluminescent NOD-SCID mice (n=32). The mouse endometrium was obtained during the proliferating estrous stage, and biopsies 2 mm in diameter were obtained with a sterile dermal biopsy punch (Miltex, NY). The biopsies were immediately washed in prewarmed, phenol-red-free DMEM/F-12 medium (Sigma) to remove residual blood and mucus, and the samples were maintained in serum-free DMEM/F-12 medium before transplantation (Bruner-Tran K L, et al. J Clin Endocrinol Metab 2009; 94:2489-94). Cultured endometrial biopsies were randomly allocated for transplantation.
(§4) Five mouse endometrial biopsies per treatment group were implanted into a single subcutaneous pocket created is the abdominal wall of the mice along the ventral midline immediately below the umbilicus. All of the surgical procedures were performed under general anesthesia with isoflurane (Baxter, IL), and the mice were monitored until they fully recovered.
Development and angiogenesis of the experimental endometriosis were monitored using various in vivo imaging systems. During the intervention, growth of the endometriotic lesions (n=8 per group) was monitored each week by measuring the bioluminescence of the subcutaneous luciferase-positive implants using a non-invasive IVIS 200 live animal imaging system (Xenogen) as previously described (Song C, et al. Hum Gene Ther, 2011; 22:439-49). A total of 150 mg/kg of luciferin was injected intraperitoneally […] 10 mins prior to imaging. An image from each animal was captured at bin size 4 in triplicate, and the bioluminescence signal intensities were averaged for comparison.

[5] = system: endometriotic lesions (experimental endometriosis); experiment: Lesion size, weight and histology at end of intervention; settings: after 4 weeks i.p. once per day
Description: as §3, §4
At the end of intervention, size of the endometriotic lesions was determined as the longest length and perpendicular width according to a venire caliper and was calculated as 0.52×width^2×length in mm^3. The endometrial implants, together with subcutaneous and muscle layers, were removed from the abdomen wall for detailed histological examination and specific staining analysis.
(§5) Paraffin sections (n=4 per group) were prepared for standard hematoxylin and eosin (H&E) staining, angiogenesis immunostaining and TUNEL staining as previously described (Xu H, et al. Hum Reprod 2009; 24:608-18.). Immunohistochemistry staining of in situ angiogenesis was performed by the immunoperoxidase method using a MACH 3 HRP Polymer Kit (Biocare Medical, Concord), and counterstained using methyl green or blue solution.

[6] = system: microvessels in the endometriotic lesions; experiment: Angiogenesis of endometriotic lesions by Cellvizio, microCT and CD31/αSMA immunostaining; settings: after 4 weeks
Experimental: as §2
After live animal imaging, structural angiogenesis in the endometriotic lesions (n=4 per group) was further examined by detecting the Microfil in the new microvessels developed in the implants using a VivaCT 40 μCT system (Scanco Medical, Switzerland) as previously described (Sun M H, et al. J Orthop Res. 2012; 30:137-43.). The mice were sacrificed by cervical dislocation and where immediately perfused with 4% paraformaldehyde and Microfil MV-120 Blue. Three-dimensional microvessel architecture was constructed, and absolute and relative Microfil-filled microvessel volumes were determined using the built-in software.
as §5
Antibodies against mouse CD31 and alpha-smooth muscle actin (αSMA) (Abcam Inc., MA) were used to double fluorescence stain the microvessels developed in the endometriotic lesions, and CD34 (Abeam Inc.) was used to stain the microvessels in the ovaries and uterus. The samples without primary antibodies served as negative controls. The total number of positively stained new and old microvessels in the lesions was counted, respectively. The mean microvessel numbers and sizes were calculated from 5 separated sections from each animal within the treatment group and are presented as numbers per lesion and μm^2 per lesion, respectively.

[7] = EGCG, pro-EGCG 50 mg/kg, vitamin E 20 mg/kg

vitamin E
VEGF concentrations in endometriotic lesions compared to saline group ([1]; lesions after intervention): not significantly different from the saline group
VEGF concentrations in plasma compared to saline group ([1]; plasma during intervention): not significantly different from the saline group
total apoptotic cell numbers in the lesions compared to saline group [2]: but not vitamin E significantly increased
ORAC in endometriotic lesions compared to saline group ([3]; lesions after intervention): significantly increased
ORAC in plasma compared to saline group ([3]; plasma during intervention): significantly increased
lesion bioluminescence intensity compared with saline group ([4]; i.p. once per day, 4 weeks, EGCG, pro-EGCG 50 mg/kg, vitamin E 20 mg/kg): significantly lower than that of the saline group at the 3rd week
lesion growth (bioluminescence) at the 4th week compared with saline group ([4]; vitamin E 20 mg/kg i.p. once per day, 4th week): returned to normal growth, as in the saline group
lesion size compared to control group [5, 7]: did not significantly decrease
lesion weight compared to control group [5, 7]: did not significantly decrease
development and histology of the endometriotic lesions ([5]; microscopic examination): a large cyst-like endometrial gland structure was formed
functional capillary length, density and area in the lesions compared to saline group ([6]; Cellvizio, FITC-Dextran): but not vitamin E, significantly inhibited
total vessel length in the lesions compared to saline group ([6]; Cellvizio, FITC-Dextran): but not vitamin E, significantly inhibited
CD31-positively and αSMA-positively stained old microvessel numbers compared to saline group ([6]; immunostaining): but not vitamin E, significantly inhibited
vessel volume and density in the lesions compared to saline group ([6]; microCT, Microfil): but not vitamin E, significantly inhibited
